One experiment relates to smooth muscle cells. Kind of experiment: Inhibition of the proliferation of smooth muscle cells (3H-thymidine incorporation). As to conditions: Sus scrofa, 10^-6 M, smooth muscle cells from pig aortas. Format: cell-based. As for the experimental part: To determine the antiproliferative action of the compounds, smooth muscle cells are used which are obtained from aortas of pigs by the media explant technique [R.Ross, J. Cell. Biol. 50, 172, 1971]. The cells are inoculated into suitable culture dishes, as a rule 96-hole plates, and cultured in 5% CO2 at 37° C. for 2-3 days in medium 199 containing 7.5% FCS and 7.5% NCS, 2 mmol L-glutamine and 15 mmol HEPES, pH 7.4. The cells are then synchronised by withdrawal of serum for 2-3 days and then stimulated into growth with serum or other factors. Test compounds are simultaneously added. After 16-20 hours, 1 μCi ^3 H-thymidine is added and after a further 4 hours the incorporation of this substance into the TCA-precipitatable DNA of the cells is determined.
To determine the IC50 values, the active compound concentration is calculated which on sequential dilution of the active compound causes half-maximal inhibition of the thymidine incorporation produced by 1% FCS.

Experiment [1] concerns isolated rabbit aorta rings, contraction induced by angiotensin II. Put plainly: Inhibition of vascular contraction induced by angiotensin II (AII) in isolated rabbit aorta rings in vitro. The conditions noted are these: based on 3rd = submaximal agonist concentration, read-out: IC50 against contractions induced by AII. As for the experimental part: Rabbits of either sex are stunned by a blow to the back of the head and bled out, or in some cases anaesthetized with Nembutal (about 60-80 mg/kg i.v.) and sacrificed by opening the thorax. The thorax aorta is removed, freed from adhering connective tissue, divided into ring segments 1.5 mm wide and individually transferred under an initial loading of about 3.5 g to 10 ml organ baths containing Krebs-Henseleit nutrient solution, which is temperature-controlled at 37° C. and aerated with 95% 02/5 % CO2, of the following composition: 119 mmol/l of NaCl; 2.5mmol/l of CaCl2 ×2H2 O; 1.2 mmol/1 of KH2 PO4; 10mmol/l of glucose; 4.8 mmol/l of KCl; 1.4 mmol/l of MgSO4 ×H2 O and 25 mmol/1 of NaHCO3.
The contractions are detected isometrically by Statham UC2 cells by means of bridge amplifiers (ifd Milheim or DSM Aalen) and digitalised and assessed by means of A/D converters (System 570, Keithley Munich). Agonist dose response curves (DRC) are plotted hourly. With each DRC, 3 or 4 individual concentrations are applied to the baths at a 4 min interval. After the end of the DRC and subsequent washing-out cycles (16 times in each case about 5 sec/min with the abovementioned nutrient solution), a 28-minute rest or incubation phase follows, during which the contractions as a rule reach the staring value again.
The height of the 3rd DRC, in a normal case, is used as a reference variable for the assessment of the test substance to be investigated in further runs, which is applied to the baths in the following DRCs in increasing doses in each case at the start of the incubation period. Each aorta ring is in this case stimulated for the whole day, always with the same agonist.
For the calculation of the IC50 (concentration at which the substance to be investigated causes a 50% inhibition), the effect is in each case based on the 3rd =submaximal agonist concentration.

In the next experiment the target is T1, angiotensin II receptor (Bos taurus, UniProt P25104).
T1 construct: Bovine adrenal gland cortices (AGC), which have been freshly removed and carefully freed from gland medulla; from tissue; host or cells: bovine adrenal gland cortex, partially purified membrane fractions
T1 sequence (P25104 1-359): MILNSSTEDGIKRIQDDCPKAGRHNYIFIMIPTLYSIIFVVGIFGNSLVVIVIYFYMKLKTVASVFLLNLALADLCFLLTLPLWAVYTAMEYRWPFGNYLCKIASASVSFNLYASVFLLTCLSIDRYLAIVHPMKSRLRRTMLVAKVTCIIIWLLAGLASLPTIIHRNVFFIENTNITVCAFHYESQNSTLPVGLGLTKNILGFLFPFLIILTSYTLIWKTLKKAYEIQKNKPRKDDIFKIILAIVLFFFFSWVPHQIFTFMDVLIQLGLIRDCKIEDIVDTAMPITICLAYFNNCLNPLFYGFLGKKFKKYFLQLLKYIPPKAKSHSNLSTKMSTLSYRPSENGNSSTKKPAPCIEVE
Kind of experiment: Angiotensin II receptor binding (3H-angiotensin II) in membrane fractions of bovine adrenal gland cortex. As to conditions: bovine adrenal gland cortex membranes, 3H-angiotensin II 3-5 nM, 60 min, room temperature. How it is done:
Bovine adrenal gland cortices (AGC), which have been freshly removed and carefully freed from gland medulla, are comminuted in sucrose solution (0.32 M) with the aid of an Ultra-Turrax (Janke & Kunkel, Staufen i.B.) to give a coarse membrane homogenate and partially purified in two centrifugation steps to give membrane fractions. The receptor binding investigations are carried out on partially purified membrane fractions of bovine AGC using radioactive angiotensin II in an assay volume of 0.25 ml, which specifically contains the partially purified membranes (50-80 μg), ^3 H-angiotensin II .(3-5 nM), test buffer solution (50 mMTris, pH 7.2, 5 mM MgCl2) and the substances to be investigated. After an incubation time of 60 min at room temperature, the unbound radioactivity of the samples is separated by means of moistened glass fibre filters (Whatman GF/C) and the bound radioactivity is measured […] in a scintillation cocktail after washing the protein with ice-cold buffer solution (50 mM Tris/HCl, pH 7.4, 5% PEG 6000). The analysis of the raw data was carried out using computer programs to give Ki or IC50 values (Ki : IC50 values corrected for the radioactivity used; IC50 values: concentration at which the substance to be investigated causes a 50% inhibition of the specific binding of the radioligand).

Molecules are shown by their SMILES.

Broadly, the inhibition is the drop in the measured response relative to a control, in per cent. A low value points to a response near the control. In general, IC50 refers to the point on the concentration scale where inhibition reaches its midpoint. By Ki is commonly meant a dissociation constant, usually derived from enzyme kinetics or from competition with a known ligand. A high value points to a looser hold on the target.

For the compound `CCCCc1nc(Cl)c(CO)n1Cc1ccc(C(CC(=O)OC(C)(C)C)c2ccccc2)cc1` (centres unmarked) [Example 18], at 1 µM the inhibition in the experiment with smooth muscle cells was 90%.
Regarding `CCCCc1nc(Cl)c(CO)n1Cc1ccc(C(=CC(=O)NC(CO)c2ccccc2)c2ccccc2)cc1` (centres unmarked) [Example 20], in experiment [1], the IC50 stood at 360 nM.
Take `CCCCc1nc(Cl)c(CO)n1Cc1ccc(/C(=C\C(=O)O)c2ccccc2)cc1` [Example 30]: the half-maximal inhibitory concentration (IC50) in experiment [1] came to 580 nM. This compound had a Ki on angiotensin II receptor of 340 nM.
The matching figures for `CCCCc1nc(Cl)c(C=O)n1Cc1ccc(/C(=C/C(=O)O)c2ccccc2)cc1` [Example 31]: 360 nM and 310 nM.
`CCCCc1nc(Cl)c(C=O)n1Cc1ccc(C(CC(=O)O)c2ccccc2)cc1` (centres unmarked) [Example 35]: the half-inhibitory concentration (IC50) in experiment [1] came to 650 nM.
Compound `CCCCc1nc(Cl)c(CO)n1Cc1ccc(C(CC(=O)O)c2ccccc2)cc1` (centres unmarked) [Example 36] had an inhibitory constant (Ki) at angiotensin II receptor of 150 nM.
Same read-out and setting: with `CCCCc1nc(Cl)c(C=O)n1Cc1ccc(C(CC(=O)O)C2CCCC2)cc1` (centres unmarked) [Example 37] the figure was 190 nM.
As to `CCCCc1nc(Cl)c(C=O)n1Cc1ccc(/C(=C/C(=O)NS(=O)(=O)c2ccc(C)cc2)c2ccccc2)cc1` [Example 39], at 1 µM the inhibition in the experiment with smooth muscle cells was 59%.
On the same count and under the same terms, the figure for `CCCCc1nc(Cl)c(C=O)n1Cc1ccc(/C(=C\C(=O)NS(=O)(=O)c2ccc(C)cc2)c2ccccc2)cc1` [Example 40] is 57%.

Source of the values: patent US5414008A, “Imidazolyl-substituted phenylpropionic and cinnamic acid derivatives” (Bayer Aktiengesellschaft, priority 1992, dated 1995).
